From the supplement of paper PMC10307832 come the findings set out here.

What all share (experiment): relative viability (nuclei count vs DMSO), 5 days (fraction); higher = more cells survive
Compound in the assay “OSI-027 + Foretinib”: COc1cccc2cc(-c3nc([C@H]4CC[C@H](C(=O)O)CC4)n4ncnc(N)c34)[nH]c12 [OSI-027] + COc1cc2c(Oc3ccc(NC(=O)C4(C(=O)Nc5ccc(F)cc5)CC4)cc3F)ccnc2cc1OCCCN1CCOCC1 [Foretinib] (partner 0.25 µM)
A digest of the protocol: (§1)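 A single step with final 0.05% Triton X-100, 1% formaldehyde and 1 ug/ml Hoechst fixed the cells and stained nuclei 5 days after treatment. Lung cancer cell lines in 1536-well plates had been treated by pin tool the day after seeding with one drug alone or a fixed anchor-drug dose plus five library-drug doses (not always all listed) in √10 steps, and nuclei were counted on 4× images. Relative viability is the ratio of nuclei in treated wells to nuclei in vehicle wells, taken as the median of duplicate plates.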

Compound in the assay “OSI-027 + Phenformin”: COc1cccc2cc(-c3nc([C@H]4CC[C@H](C(=O)O)CC4)n4ncnc(N)c34)[nH]c12 [OSI-027] + N=C(N)NC(=N)NCCc1ccccc1 [Phenformin] (partner 250 µM)
A digest of the protocol: as §1

Compound in the assay “OSI-027 + Decitabine”: COc1cccc2cc(-c3nc([C@H]4CC[C@H](C(=O)O)CC4)n4ncnc(N)c34)[nH]c12 [OSI-027] + Nc1ncn([C@H]2C[C@H](O)[C@@H](CO)O2)c(=O)n1 [Decitabine] (partner 2 µM)
A digest of the protocol: as §1

Compound in the assay “OSI-027 + Olaparib”: COc1cccc2cc(-c3nc([C@H]4CC[C@H](C(=O)O)CC4)n4ncnc(N)c34)[nH]c12 [OSI-027] + O=C(c1cc(Cc2n[nH]c(=O)c3ccccc23)ccc1F)N1CCN(C(=O)C2CC2)CC1 [Olaparib] (partner 8 µM)
In outline: as §1

Turning to NCI-H1755, the relative viability was found to be 0.859 with OSI-027 + Foretinib (first compound 0.01 µM); 0.92 in the assay with OSI-027 + Foretinib (first compound 0.03162 µM); 0.835 with OSI-027 + Foretinib (first compound 0.1 µM); 0.809 with OSI-027 + Foretinib (first compound 0.3162 µM); 0.522 in the assay with OSI-027 + Foretinib (first compound 1 µM); 0.615 with OSI-027 + Phenformin (first compound 0.01 µM). The relative viability amounted to 0.696 with OSI-027 + Phenformin (first compound 0.03162 µM); 0.594 with OSI-027 + Phenformin (first compound 0.1 µM); 0.569 with OSI-027 + Phenformin (first compound 0.3162 µM); 0.451 in the assay with OSI-027 + Phenformin (first compound 1 µM); 0.75 in the assay with OSI-027 + Decitabine (first compound 0.01 µM); 0.716 in the assay with OSI-027 + Decitabine (first compound 0.03162 µM). For the same cell line, the relative viability with OSI-027 + Decitabine (first compound 0.1 µM) was found to be 0.702; with OSI-027 + Decitabine (first compound 0.3162 µM), 0.654; with OSI-027 + Decitabine (first compound 1 µM) it was 0.503; with OSI-027 + Olaparib (first compound 0.01 µM), 0.874; with OSI-027 + Olaparib (first compound 0.03162 µM), 0.849; with OSI-027 + Olaparib (first compound 0.1 µM), 0.883. In addition, the relative viability in the assay with OSI-027 + Olaparib (first compound 0.3162 µM) worked out at 0.761; with OSI-027 + Olaparib (first compound 1 µM) it was 0.486.
With SW 900, the relative viability with OSI-027 + Foretinib (first compound 0.03162 µM) is 0.644; with OSI-027 + Foretinib (first compound 0.1 µM), 0.725; with OSI-027 + Foretinib (first compound 0.3162 µM), 0.873; with OSI-027 + Foretinib (first compound 1 µM), 0.405; with OSI-027 + Phenformin (first compound 0.03162 µM), 0.45; in the assay with OSI-027 + Phenformin (first compound 0.1 µM) it was 0.633. Also, the relative viability with OSI-027 + Phenformin (first compound 0.3162 µM) was 0.474; in the assay with OSI-027 + Phenformin (first compound 1 µM), 0.347; in the assay with OSI-027 + Decitabine (first compound 0.01 µM), 0.438; with OSI-027 + Decitabine (first compound 0.03162 µM), 0.402; in the assay with OSI-027 + Decitabine (first compound 0.1 µM) it was 0.42; with OSI-027 + Decitabine (first compound 0.3162 µM) it was 0.48. Further, the relative viability with OSI-027 + Decitabine (first compound 1 µM) worked out at 0.384; in the assay with OSI-027 + Olaparib (first compound 0.01 µM), 0.953; with OSI-027 + Olaparib (first compound 0.03162 µM) it was 0.819; in the assay with OSI-027 + Olaparib (first compound 0.1 µM), 0.931; with OSI-027 + Olaparib (first compound 0.3162 µM) it was 0.823; with OSI-027 + Olaparib (first compound 1 µM) it was 0.519.
For NCI-H1734, the relative viability with OSI-027 + Foretinib (first compound 0.01 µM) was 0.87; in the assay with OSI-027 + Foretinib (first compound 0.03162 µM) it was 0.92; with OSI-027 + Foretinib (first compound 0.1 µM) it was 0.799; with OSI-027 + Foretinib (first compound 0.3162 µM), 0.726; with OSI-027 + Foretinib (first compound 1 µM), 0.477; with OSI-027 + Phenformin (first compound 0.01 µM) it was 0.398. For the same cell line, the relative viability with OSI-027 + Phenformin (first compound 0.03162 µM) amounted to 0.398; with OSI-027 + Phenformin (first compound 0.1 µM), 0.384; with OSI-027 + Phenformin (first compound 0.3162 µM) it was 0.346; with OSI-027 + Phenformin (first compound 1 µM) it was 0.238; in the assay with OSI-027 + Decitabine (first compound 0.01 µM), 0.559; in the assay with OSI-027 + Decitabine (first compound 0.03162 µM) it was 0.595. The relative viability with OSI-027 + Decitabine (first compound 0.1 µM) turned out to be 0.503; with OSI-027 + Decitabine (first compound 0.3162 µM), 0.265; with OSI-027 + Decitabine (first compound 1 µM), 0.417; with OSI-027 + Olaparib (first compound 0.01 µM) it was 0.656; with OSI-027 + Olaparib (first compound 0.03162 µM), 0.597; with OSI-027 + Olaparib (first compound 0.1 µM) it was 0.599. The relative viability in the assay with OSI-027 + Olaparib (first compound 0.3162 µM) was 0.566; with OSI-027 + Olaparib (first compound 1 µM), 0.401.
Consider NCI-H358, for which the relative viability stood at 0.68 in the assay with OSI-027 + Foretinib (first compound 0.01 µM); 0.562 with OSI-027 + Foretinib (first compound 0.03162 µM); 0.699 with OSI-027 + Foretinib (first compound 0.1 µM); 0.703 with OSI-027 + Foretinib (first compound 0.3162 µM); 0.576 with OSI-027 + Foretinib (first compound 1 µM); 0.309 with OSI-027 + Phenformin (first compound 0.01 µM). Also, the relative viability with OSI-027 + Phenformin (first compound 0.03162 µM) came to 0.301; in the assay with OSI-027 + Phenformin (first compound 0.1 µM), 0.311; with OSI-027 + Phenformin (first compound 0.3162 µM) it was 0.334; with OSI-027 + Phenformin (first compound 1 µM), 0.283; with OSI-027 + Decitabine (first compound 0.01 µM), 0.191; with OSI-027 + Decitabine (first compound 0.03162 µM), 0.182. The relative viability with OSI-027 + Decitabine (first compound 0.1 µM) came out at 0.199; with OSI-027 + Decitabine (first compound 0.3162 µM) it was 0.232; with OSI-027 + Decitabine (first compound 1 µM), 0.178; with OSI-027 + Olaparib (first compound 0.01 µM), 0.708; with OSI-027 + Olaparib (first compound 0.03162 µM) it was 0.546; with OSI-027 + Olaparib (first compound 0.1 µM) it was 0.579. Also, the relative viability with OSI-027 + Olaparib (first compound 0.3162 µM) is 0.572; with OSI-027 + Olaparib (first compound 1 µM) it was 0.422.
